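The compound was tested at five concentrations on cells cultured in 96-well plates, with a 48-hour exposure period. GI50 = concentration required for 50% inhibition of growth. Definition used: TGI = concentration required for complete inhibition of growth.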

14 compounds from PubChem BioAssay (NCI) can be followed below.

Test systems include HCT-15 colon; SF-268 CNS; SF-295 CNS; SK-OV-3 ovarian; SK-MEL-28 melanoma; MALME-3M melanoma; IGROV1 ovarian; OVCAR-8 ovarian; SR leukemia; MDA-MB-231 breast.
Holding throughout (test): NCI-60 cell line screen, 48 h

Regarding `N.N.N.N.O=S([O-])[O-].[Co+3].[N-]=[N+]=[N-]`, the GI50 in the experiment with HCT-15 colon, in the experiment on SF-268 CNS, with SF-295 CNS, with SK-OV-3 ovarian, in the experiment on SK-MEL-28 melanoma and in the experiment on MALME-3M melanoma was over 100 µM each time. Further, the GI50 in the experiment on IGROV1 ovarian and in the experiment with OVCAR-8 ovarian was over 100 µM in each case. Also, the TGI in the experiment with HCT-15 colon, in the experiment on SF-268 CNS, in the experiment with SF-295 CNS, in the experiment with SK-OV-3 ovarian, with SK-MEL-28 melanoma and in the experiment with MALME-3M melanoma was over 100 µM each time. Moreover, the TGI in the experiment on IGROV1 ovarian and in the experiment with OVCAR-8 ovarian was over 100 µM each time.
As to `Nc1ccccc1SC(/C=C/NNC1=NC(c2ccccc2)C(c2ccccc2)=NN1)c1ccccc1` (centres undefined), the TGI in the experiment with HCT-15 colon turned out to be 32 µM; in the experiment on SF-268 CNS, 17.1 µM; in the experiment with SF-295 CNS, 24.5 µM; with SK-OV-3 ovarian, 44.4 µM; in the experiment with SK-MEL-28 melanoma, 27 µM; in the experiment on MALME-3M melanoma it was 30.1 µM. Also, the values for the TGI with IGROV1 ovarian and with OVCAR-8 ovarian were 32.5 µM and 49 µM, respectively.
Turning to `CCNC(=O)COc1ccc(Cl)c(C)c1`, the TGI in the experiment on HCT-15 colon, in the experiment with SR leukemia, in the experiment on SF-268 CNS, in the experiment with SF-295 CNS, in the experiment with SK-OV-3 ovarian and with SK-MEL-28 melanoma was over 100 µM each time. Also, the TGI in the experiment with MALME-3M melanoma and with IGROV1 ovarian was over 100 µM in each case.
Turning to `Cc1nc(Nc2ccc(Cl)cc2)sc1C(=O)Nc1cccc2c(=O)[nH][nH]c(=O)c12`, the TGI was 71.3 µM with HCT-15 colon; 64.8 µM in the experiment with SR leukemia; over 100 µM in the experiment with SF-268 CNS; 74.3 µM in the experiment on SF-295 CNS; over 100 µM in the experiment on SK-OV-3 ovarian; over 100 µM with SK-MEL-28 melanoma. The TGI was 80.3 µM in the experiment with MALME-3M melanoma, 83.5 µM with IGROV1 ovarian and over 100 µM in the experiment on OVCAR-8 ovarian.
As to `O=C(NCCCN1CCN(CCCNC(=O)Nc2cc(Cl)ccc2Cl)CC1)Nc1cc(Cl)ccc1Cl`, the TGI with HCT-15 colon was over 100 µM; in the experiment on SF-268 CNS, over 100 µM; in the experiment with SF-295 CNS it was over 100 µM; with SK-OV-3 ovarian, over 100 µM; in the experiment on SK-MEL-28 melanoma, over 100 µM; with MALME-3M melanoma it was 54.1 µM. In addition, the TGI in the experiment with IGROV1 ovarian and in the experiment on OVCAR-8 ovarian was over 100 µM in each case.
`O=S1(=O)CCC2=CC(C(F)(F)F)=CC(C(F)(F)F)=CN21`: the TGI with HCT-15 colon came to 1.5 µM; in the experiment with SR leukemia, 1.82 µM; in the experiment with SF-268 CNS it was 4.68 µM; in the experiment on SF-295 CNS it was 4.8 µM; in the experiment on SK-OV-3 ovarian it was 12.2 µM; with SK-MEL-28 melanoma, 4.54 µM. In addition, the TGI stood at 2.26 µM in the experiment on MALME-3M melanoma, 3.66 µM in the experiment with IGROV1 ovarian and 2.25 µM in the experiment on OVCAR-8 ovarian.
As for `CN(C)C(=S)/N=c1\ssc(=Nc2ccccc2)n1-c1ccccc1`, the TGI with HCT-15 colon is over 100 µM; with SF-268 CNS, 98.2 µM; in the experiment on SF-295 CNS, over 100 µM; with SK-OV-3 ovarian it was 80.5 µM; with SK-MEL-28 melanoma it was over 100 µM; with MALME-3M melanoma it was over 100 µM. Moreover, the TGI in the experiment on IGROV1 ovarian was over 100 µM; with OVCAR-8 ovarian it was 68.7 µM.
For the compound `C=C(c1ccccc1)c1cc2c(=O)[nH]ccc2n1C`, the TGI was over 100 µM in the experiment with HCT-15 colon; over 100 µM in the experiment on SF-268 CNS; 82.9 µM in the experiment with SF-295 CNS; 69.4 µM with SK-OV-3 ovarian; over 100 µM with SK-MEL-28 melanoma; over 100 µM in the experiment with MALME-3M melanoma. Further, the TGI with IGROV1 ovarian and in the experiment on OVCAR-8 ovarian was over 100 µM each time.
Regarding `CCOC(=O)NN1C(=O)C(=P(c2ccccc2)(c2ccccc2)c2ccccc2)C(C(=O)OC)=C1C`, the TGI in the experiment on HCT-15 colon, in the experiment with SR leukemia, in the experiment with SF-268 CNS, in the experiment with SF-295 CNS, in the experiment with SK-OV-3 ovarian and in the experiment with MALME-3M melanoma was over 100 µM throughout. The TGI with IGROV1 ovarian and in the experiment with OVCAR-8 ovarian was over 100 µM throughout.
Take `COC(=O)C1=C(O)c2cc(OC)c(OC)c(OC)c2C(c2ccc3c(c2)OCO3)[C@@H]1C(=O)OC` (some centres undefined): the TGI in the experiment on HCT-15 colon is over 100 µM; in the experiment with SR leukemia it was over 100 µM; in the experiment with SF-268 CNS it was over 100 µM; in the experiment with SF-295 CNS, 13.4 µM; with SK-OV-3 ovarian, 8.76 µM; with SK-MEL-28 melanoma, over 100 µM. The TGI with MALME-3M melanoma, with IGROV1 ovarian and in the experiment with OVCAR-8 ovarian was over 100 µM in each case.
As to `O=C1c2ccccc2-c2c1c1ccccc1c(=O)n2CCNCCNCCNCCNCCn1c2c(c3ccccc3c1=O)C(=O)c1ccccc1-2`, the GI50 in the experiment on HCT-15 colon is 0.568 µM; in the experiment with SF-268 CNS, 0.049 µM; in the experiment on SK-MEL-28 melanoma, 1.95 µM; in the experiment on OVCAR-8 ovarian, 0.172 µM; in the experiment with MDA-MB-231 breast, 0.0846 µM. Moreover, the TGI in the experiment on HCT-15 colon is 2.56 µM; in the experiment on SF-268 CNS, 0.808 µM; in the experiment with SK-MEL-28 melanoma, over 100 µM; in the experiment on OVCAR-8 ovarian, 2.69 µM; with MDA-MB-231 breast, 1.6 µM.
As for `Nc1ccc(C(=O)N/C(=C\c2ccc3c(c2)OCO3)c2nc3ccccc3s2)cc1`, the TGI with HCT-15 colon amounted to 23.4 µM; in the experiment on SR leukemia, 53.4 µM; in the experiment with SF-268 CNS, 24.2 µM; in the experiment on SF-295 CNS it was 30.3 µM; in the experiment on SK-OV-3 ovarian it was 36.2 µM; in the experiment with SK-MEL-28 melanoma, 25.9 µM. Also, the TGI was 31.7 µM in the experiment with IGROV1 ovarian and 28.9 µM in the experiment with OVCAR-8 ovarian.
With `COC(=O)CCC(NC(=S)N/N=C(\C)c1cccs1)C(=O)OC` (centres undefined), the TGI in the experiment on HCT-15 colon, with SF-268 CNS, with SF-295 CNS, in the experiment with SK-OV-3 ovarian, in the experiment with SK-MEL-28 melanoma and with MALME-3M melanoma was over 100 µM each time. Also, the TGI in the experiment on IGROV1 ovarian and in the experiment on OVCAR-8 ovarian was over 100 µM each time.
As to `CC(NC1CCCC[C@@H]1O)c1ccccc1` (some centres undefined), the TGI with HCT-15 colon, with SF-295 CNS, in the experiment with SK-OV-3 ovarian, in the experiment on SK-MEL-28 melanoma, in the experiment with MALME-3M melanoma and in the experiment with IGROV1 ovarian was over 100 µM in each case. This compound also yielded a TGI with OVCAR-8 ovarian of over 100 µM.
